Where “and” joins values, the source holds several entries; their conditions need not be identical. Identical values can stand only once.
Experiments:
[1] = test system: IFNAR1 cell surface levels in MCF10A BRCC45 WT cells; assay: MCF10A BRCC45 WT IFNAR1 cell surface levels (FACS); format: cell-based, human; conditions: for IFNAR1 cell surface levels (Fig. 5g): BRCC45 KO + BRCC45 WT, IFN + compound, No IFN about 100; for IFNAR1 cell surface levels: BRCC45 WT cells, IFN 50 ng/ml, 5 μM, 90 min
Method: To study the direct effect of BRISC DUB inhibitors, IFNAR1 surface levels were measured using flow cytometry (FACS) analysis. For this purpose, MCF10A WT and MCF10A BRCC45 KO cells expressing […]
BRCC45 WT or BRCC45 R137A were used. […]
minutes prior to the addition of 50 ng/mL of hIFN-Iα for various time points (45 minutes and 90 minutes).
After IFN treatment, cells were dissociated from plate using cell dissociation Buffer (ThermoFisher Scientific, #13150016) and were stained with LIVE/DEAD™ Fixable Violet Dead Cell Stain Kit, for 405 nm excitation (ThermoFisher Scientific, #L34963) for 30 minutes, as per the kit protocol. The cells were then washed using FACS buffer (DPBS, 1% BSA, 2 mM EDTA, 0.09% sodium azide) and transferred to 96-well round bottom plates. Resuspended cells were divided into three repeats for each sample, each was surface stained for 1 hour at 4 °C with: 1. Human IFN-alpha/beta R1 Antibody (R&D systems, #MAB245), 2. Mouse IgG1 Isotype Control (R&D systems, #MAB002), 3. FACS buffer (control cells).
Following incubation, cells were washed once with FACS buffer and were labelled for 30 minutes at 4 °C with either Biotin-SP-conjugated AffiniPure Donkey Anti-Mouse IgG (H+L) (Jackson Immunoresearch Laboratories) for samples 1 and 2 or with FACS buffer for sample 3. Cells were washed twice with FACS buffer and were labelled for 15 minutes at 4 °C with either R-Phycoerythrin-conjugated Streptavidin (Jackson Immunoresearch Laboratories) for samples 1 and 2 or with FACS buffer for sample 3. Cells were washed 3 times with FACS buffer and were analysed by FACS (MACSQuant, Miltenyi Biotec). For each sample from group 1 the Geo mean fluorescence intensity (MFI) of its isotype sample was reduced. IFNAR1 cell surface percentage was calculated by 100*(MFI

[2] = test system: IFNAR1 ubiquitylation in MCF10A cells; assay: TUBE pull-down of ubiquitylated IFNAR1 in MCF10A cells; format: cell-based, human; design: Blot Mean, Background substracted: unit not given here; conditions: for IFNAR1 ubiquitylation: MCF10A, IFNα2 50 ng/mL, 5 µM, compared to DMSO, AP-5-145 and FX-171-A
Method: Tandem ubiquitin binding entity (TUBE) pull -down assay
The TUBE pull -down experiment was performed according to the manufacturer’s (UM401: TUBE 1 Agarose; LifeSensors) protocol with modifications. MCF10A cells (~20 x10 6) were pre -treated with the […] inhibitor panel (5 µM) or DMSO vehicle control for 1 hour followed by addition of recombinant IFNα2 (50 ng/m L, 592702, BioLegend). Following 1 hour incubation with IFNα2, cells were lysed in cell lysis buffer (50 mM Tris -HCl, pH 7.5, 0.15 M NaCl, 1 mM EDTA, 1% NP -40, 10% glycerol, 10 mM […]
NEM). Cell lysates were clarified by centrifugation at 15,000 g for 10 minutes at 4 °C. Clarified lysates were pre-cleared with control uncoupled agarose beads (UM400, LifeSensors) for 30 minutes on a rotator at 4 °C followed by centrifugation at 5,000 g for 2 minutes. Equal amount of pre-cleared lysates from individual samples were incubated with 20 µL Agarose-TUBE beads (pre-equilibrated with 1X Tris-buffered saline (TBS)) overnight on a rotator at 4 °C. Beads were collected by centrifugation at 5,000 g for 2 minutes at RT followed by four stringent washes with 1X TBST (TBS, 0.1% Tween-20). TUBE-pulldown proteins were eluted by boiling Agarose-TUBE beads in 2X LDS sample buffer supplemented with […] DTT for 15 minutes. Eluted proteins were resolved on NuPAGE™ 4–12% Bis–Tris gel followed by Western blotting using anti-IFNAR1 antibody (ab124764, Abcam).
PBMCs in vitro experiments
Peripheral blood mononuclear cells (PBMCs) from healthy and SSc donors were separated using density gradient method (Leucosep™, Greiner Bio-One International) from EDTA anticoagulated peripheral blood; isolated cells were washed twice by PBS. PBMCs were then incubated in RPMI1640 […]
For healthy PBMCs, cells were stimulated with 20 ng/mL of IFN (+/- compounds or DMSO). For SSc PBMCs, cells were in basal conditions with no additional IFN stimulation. Cells were centrifuged at 300 g for 10 minutes. Supernatant was removed and subjected to R&D Systems DY266 Human CXCL10/IP-10 DuoSet ELISA (Biotechne) in duplicates, according to manufacturer’s guidance. Concentration of CXCL10 was determined according to a 4-parameter logistic regression standard curve. RNA was extracted from cell pellets using TRIzol™ (ThermoFisher Scientific, Waltham, MA) and processed using Quick-RNA Miniprep Kit (Zymo Research) as per the manufacturer’s instruction.
For Type I IFN signalling analysis, the human IFN I RT2 Profiler PCR Array (Qiagen, PAMM-016ZE) was performed on available RNA from healthy (n=3) and SSc (n=9) donors. RNA was converted to cDNA using RT2 First Strand Kit (Qiagen). Next, the cDNA was mixed with RT2 SYBR Green Mastermix (Qiagen, Venlo). Successful PCR performance was confirmed by assay tests for genomic DNA contamination, RNA sample quality, as well as single melt curve determination and <35 Ct for each gene, leading to validated gene expression of 67 genes. Relative expression for each gene was determined, firstly by ∆CT calculated using the geometric mean of 4 housekeeping genes (ACTB, GAPDH, HPRT1, RPLP0), followed by 2^(-∆CT), and expressed as fold change to control, according to manufacturer’s guidance. IFN2α-induced ISGs in healthy donors were determined using a Student’s t-test (two-tail distribution and equal variances) on the triplicate fold change in 2^(-ΔCT) values between […]
donors). Heatmaps were generated using the “pheatmap” function in R (v4.0.2) and RStudio (v1.3.1093) applying row scaling to standardise the expression data across samples (R core team 2020.
R Foundation for Statistical Computing). The IFN2α inducible genes determined in healthy donors […]
171-C. To account for Type I IFN signalling heterogeneity across samples, the mean 2^(-∆CT) for each […]
relative gene expression, illustrated as a fold change and visualised in log2. The Type I IFN signalling array data for the patient samples is included in Source Data Figure 6, Extended Data Fig. 9.

[3] = TUBE pull-down IFNAR1 blot densitometry, biological replicates 1-3

SMILES | IFNAR1 cell surface levels (Fig. 5g) [1] | Fold Change ([2]; TUBE pull-down IFNAR1 blot densitometry, relative to DMSO = 1, biological replicates 1-3) | Blot Mean, Background substracted [2, 3] | IFNAR1 cell surface levels [1] | IFNAR1 ubiquitylation [2]
Cn1cc(NC(=O)c2c(Cl)cccc2Cl)c(C(=O)NC2CCN(C(=O)c3c(Cl)cccc3Cl)CC2)n1 [AP-5-145] | 55.2385 and 54.5047 and 53.242 | 1.205 and 1.413 and 1.158 | 48.742 and 43.008 and 72.446 |  | 
O=C(NC1CCNCC1)c1nn(C(=O)c2c(Cl)cccc2Cl)cc1NC(=O)c1c(Cl)cccc1Cl [JMS-175-2] | 38.381 and 37.8977 and 40.435 |  | 63.299 and 57.607 and 102.609 | reduction in IFNAR1 cell surface levels | elevated levels of IFNAR1 ubiquitylation
O=C(NC1C2CNCC21)c1nn(C(=O)c2c(Cl)cccc2Cl)cc1NC(=O)c1c(Cl)cccc1Cl (centres unmarked) [FX-171-C] | 39.3476 and 40.435 and 39.71 |  | 52.149 and 49.341 and 95.856 | reduction in IFNAR1 cell surface levels | elevated levels of IFNAR1 ubiquitylation

Source: article PMC7617869, “Molecular glues that inhibit deubiquitylase activity and inflammatory signaling” (Nature Structural & Molecular Biology, 2025)
